We go through 11 molecules from PMC8307404, “Crystal Structure-Guided Design of Bisubstrate Inhibitors and Photoluminescent Probes for Protein Kinases of the PIM Family” (Molecules, 2021).

Values joined by “and” are separate entries in the source; they are usually repeats but may differ in a detail not shown here. Identical values can stand only once. Square brackets hold non-standard residues; d marks the D form. Peptide text beside a SMILES is read from it. * marks the point of attachment. X7 = Nc1nccc(-c2ccc(C(=O)*)s2)n1; Ahx = NCCCCCC(=O)O

The target of series [1] is T1, PIM1 (Homo sapiens, UniProt P11309). Briefly: Thermal shift assay. The series is classed as binding. Also on record: made in house. Particulars: 2 μM kinase, 12.5 μM compound; mean ± SEM, N = 2.
T1 sequence (P11309 whole entry): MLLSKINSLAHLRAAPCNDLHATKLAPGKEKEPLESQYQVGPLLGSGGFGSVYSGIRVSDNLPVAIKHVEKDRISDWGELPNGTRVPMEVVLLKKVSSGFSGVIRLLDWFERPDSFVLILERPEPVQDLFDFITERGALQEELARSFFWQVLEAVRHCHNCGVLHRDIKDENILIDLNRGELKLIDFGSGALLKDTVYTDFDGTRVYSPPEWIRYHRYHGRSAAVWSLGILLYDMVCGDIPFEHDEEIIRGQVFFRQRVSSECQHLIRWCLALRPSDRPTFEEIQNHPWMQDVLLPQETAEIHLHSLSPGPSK
Protocol: (§1) Thermal shift assay measurements were performed following the previously published protocol [61] using a real-time PCR instrument (Mx3005p RT-PCR, Stratagene; La Jolla, California). […] The measurements were carried out in PCR low-profile microplate wells (ABgene; Portsmouth, NH, USA). The temperature scan was run from 25 to 95 °C at 1 °C/min. GraphPad Prism v. 6.0 (GraphPad Software, Inc.; San Diego, CA, USA) and Microsoft Excel v. 2007 (Microsoft Office; Redmond, WA, USA) were used for data processing and analysis.
Series [2] concerns the target T2, PIM2 (Homo sapiens, UniProt Q9P1W9). As to the kind of experiment: Thermal shift assay. The format is binding. Set-up: made in house. Particulars: 2 μM kinase, 12.5 μM compound; mean ± SEM, N = 2.
Protocol: as §1
In series [3] the target is T3, PIM3 (Homo sapiens, UniProt Q86V86). As to the kind of experiment: Thermal shift assay. The series is classed as binding. Also on record: made in house. The following applies: 2 μM kinase, 12.5 μM compound; mean ± SEM, N = 2.
Protocol: as §1
The target of a further series is T4, PKAcα (Homo sapiens, UniProt P17612).
T4 construct: purchased Biaffin GmbH & Co KG (Kassel, Germany)
Briefly: Binding/displacement assay with FA or TGLI readout. The following applies: TGLI or FA readout; mean ± SEM, N = 2; read-out: KD, nM (PKAcα). Here is the method: The affinities of the compounds toward the PIM family PKs were determined in a binding/displacement assay with measurement of fluorescence anisotropy (FA) and time-gated luminescence intensity (TGLI) (Table 2). For the initial assessment of the selectivity of compounds, PKAcα was used as the reference basophilic kinase.
Optical FA measurement modules for 5-TAMRA-labeled compounds (ex. 540(20) nm, em. 590(20) nm and 590(20) nm), for Cy5-labeled compounds (ex. 590(50) nm, em. 675(50) nm and 675(50) nm), and optical TGLI measurement modules for ARC-1451 (ex. 330(60) nm, em. 590(50) nm), for ARC-1188 (ex. 330(60) nm, em. 675(50) nm) were used for assays with PHERAstar microplate reader (BMG Labtech; Ortenberg, Germany). TGLI measurements were performed with a delay time of 50 μs and integration of the signal for 150 μs. In each measurement, emission from 200 flashes of excitation radiation was collected. The measurement solutions (20 µL volumes) were prepared in black 384-well low-binding surface microtiter plates (Corning #4514; Kennebunk, ME, USA) and incubated for 20 min at 30 °C before the measurements. The assay buffer contained HEPES hemisodium salt (pH 7.4, 50 mM), NaCl (150 mM), dithiothreitol (5 mM), bovine serum albumin (0.5 mg/mL), and Tween-20 (0.005%). GraphPad Prism v. 5.04 (GraphPad Software, Inc.) was used for data analysis with FA [32] or TGLI [33] readouts. Representative titration curves can be found in Supplementary Figure S7.

The target in series [4] is T2, PIM2. Briefly: Binding/displacement assay with FA or TGLI readout. Set-up: made in house. Particulars: mean ± SEM, N = 2.
Protocol: (§2) The affinities of the compounds toward the PIM family PKs were determined in a binding/displacement assay with measurement of fluorescence anisotropy (FA) and time-gated luminescence intensity (TGLI) (Table 2). For the initial assessment of the selectivity of compounds, PKAcα was used as the reference basophilic kinase [10].
(§3) Optical FA measurement modules for 5-TAMRA-labeled compounds (ex. 540(20) nm, em. 590(20) nm and 590(20) nm), for Cy5-labeled compounds (ex. 590(50) nm, em. 675(50) nm and 675(50) nm), and optical TGLI measurement modules for ARC-1451 (ex. 330(60) nm, em. 590(50) nm), for ARC-1188 (ex. 330(60) nm, em. 675(50) nm) were used for assays with PHERAstar microplate reader (BMG Labtech; Ortenberg, Germany). TGLI measurements were performed with a delay time of 50 μs and integration of the signal for 150 μs. In each measurement, emission from 200 flashes of excitation radiation was collected. The measurement solutions (20 µL volumes) were prepared in black 384-well low-binding surface microtiter plates (Corning #4514; Kennebunk, ME, USA) and incubated for 20 min at 30 °C before the measurements. The assay buffer contained HEPES hemisodium salt (pH 7.4, 50 mM), NaCl (150 mM), dithiothreitol (5 mM), bovine serum albumin (0.5 mg/mL), and Tween-20 (0.005%). […] 5.04 (GraphPad Software, Inc.) was used for data analysis with FA [32] or TGLI [33] readouts.
Series [5] addresses T1, PIM1. Briefly: Binding/displacement assay with FA or TGLI readout. Also on record: made in house.
Protocol: as §2, §3
The target in series [6] is T3, PIM3. Briefly: Binding/displacement assay with FA or TGLI readout. Set-up: made in house. Particulars: mean ± SEM, N = 2.
Protocol: as §2, §3
The test system of the next series is U2OS cells. Briefly: Cellular uptake of fluorescent probes, live-cell microscopy. The series is classed as cell-based, human. The following applies: 1–5 μM, 10–60 min. Here is the method: For studies of the general internalization properties of ARCs, the cells were seeded at the density of 12,000–25,000 cells per well onto an Ibidi μ-plate (96-well; Ibidi GmbH, Planegg, Germany). After 24 h incubation in growth medium, the cells were treated for 10 min, 30 min, or 1 h with dilutions of compounds 6, 7, 8, or ARC-2090 (5 μM, 2.5 μM, or 1 μM final concentration) in the phenol red-free DMEM/Ham’s F12 medium supplemented with 2% ccFBS and 2 mM glutamine. Next, cells were washed twice with PBS, and imaging medium (MEMO + Supplement A 1:100) was applied subsequently. Cells were imaged with Cytation 5 wide-field microscope (BioTek; Winooski, VT, USA) using 20× air objective and the following settings: for Cy5, 623 nm LED (intensity: 2) and Cy5 filter cube (685 nm) with 104 ms integration time and detector gain value of 2; for TAMRA, 523 nm LED (intensity: 7) and RFP filter cube (593 nm) with 252 ms integration time and detector gain value of 16; for bright-field, white LED with intensity 6, 186 ms integration time and detector gain value of 15. Four independent experiments were performed.

The target in the next series is T5, PIM-1-TagRFP (Homo sapiens, UniProt P11309).
T5 construct: expressed in transfected cells; host or cells: U2OS (human osteosarcoma), transient, 48 h, FuGENE HD
T5 sequence (P11309 whole entry): as the sequence (P11309 whole entry) above
Briefly: Co-localization study, TIRF microscopy. The format is cell-based. The following applies: live U2OS cells, 48 h transfection, 1 h incubation with 2.5 or 5 μM probe.

In the next series the target is endoprotease furin. Also on record: method as in PMID 26110264. Particulars: cited from earlier work.
Where [7] appears, read: KD, nM (PIM-1), TGLI or FA readout, mean ± SEM, N = 2.

T2 sequence (Q9P1W9 whole entry): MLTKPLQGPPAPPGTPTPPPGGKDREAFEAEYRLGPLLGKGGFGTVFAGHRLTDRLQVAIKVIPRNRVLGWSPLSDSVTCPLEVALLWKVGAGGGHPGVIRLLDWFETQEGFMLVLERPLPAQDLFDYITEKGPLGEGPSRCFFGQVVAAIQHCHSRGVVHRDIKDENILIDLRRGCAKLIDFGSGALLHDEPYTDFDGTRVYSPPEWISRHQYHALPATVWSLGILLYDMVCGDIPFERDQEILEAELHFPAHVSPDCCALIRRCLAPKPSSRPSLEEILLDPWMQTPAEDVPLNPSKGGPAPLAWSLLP

As for `C[C@@H](NC(=O)CCCCCNC(=O)c1ccc(-c2ccnc(N)n2)s1)C(=O)N[C@H](CCCNC(=N)N)C(=O)N[C@H](CCCNC(=N)N)C(=O)N[C@H](CCCNC(=N)N)C(=O)N[C@H](CCCNC(=N)N)C(=O)N[C@H](CCCNC(=N)N)C(=O)N[C@H](CCCNC(=N)N)C(=O)N[C@H](CCCCN)C(=O)NCC(=O)O` [ARC-1141, AMTH-Ahx-D-Ala-(D-Arg)6-D-Lys-Gly] ({X7-Ahx}-[dA][dR][dR][dR][dR][dR][dR][dK]G-OH), in the series with PIM1 [1], the “∆Tm, °C PIM-1” value amounted to 5.2 ± 0.4 °C. Also, the “∆Tm, °C PIM-2” value in the series with PIM2 [2] was found to be 5.9 ± 0.6 °C. Moreover, in the series with PIM3 [3], the “∆Tm, °C PIM-3” value worked out at 4.9 ± 0.4 °C.
As to `N[C@@H]1CCCN(c2c(/C=C3\SC(=O)NC3=O)cccc2-c2ccccc2)C1` [AZD1208, reference compound], the Kd (commonly the equilibrium constant for the complex coming apart) on PKAcα was > 83000 nM.
With `N=C(N)NCCC[C@@H](NC(=O)CNC(=O)[C@@H](CCCNC(=N)N)NC(=O)[C@@H](CCCNC(=N)N)NC(=O)CCCCc1cn(Cc2nc3c(sc4ccc(Br)cc43)c(=O)[nH]2)nn1)C(=O)N[C@H](CCCCN)C(N)=O` [Compound 4, BBTP-Tap-(D-Arg)2-Gly-D-Arg-D-Lys-NH2], the Kd on PIM2 [4] is 20 ± 4 nM; on PIM1 [5] (setting [7]), 1.8 ± 0.3 nM; at PIM3 [6], 6.6 ± 1.4 nM; on PKAcα, > 18200 nM. In addition, the “fold higher selectivity as compared to compound 3” value on PIM1 [5] (PIM-1 vs PKAcα) is “over 5 fold”.
For `N=C(N)NCCC[C@@H](NC(=O)CNC(=O)[C@@H](CCCNC(=N)N)NC(=O)[C@@H](CCCNC(=N)N)NC(=O)CCCCCCCNC(=O)[C@@H]1C[C@@H](O)CN1Cc1nc2c(sc3ccc(Br)cc32)c(=O)[nH]1)C(=O)N[C@H](CCCCN)C(N)=O` [Compound 5, BBTP-Hyp-Aoc-(D-Arg)2-Gly-D-Arg-D-Lys-NH2], the Kd on PIM2 [4] was 447 ± 52 nM; at PIM1 [5] (setting [7]), 37.8 ± 9 nM; on PIM3 [6], 30.4 ± 6.5 nM; at PKAcα, > 20600 nM. The “fold lower selectivity toward PIM-1 than compound 2” value on PIM1 [5] (PIM-1 vs PKAcα) was “over 4 fold”.
Consider `CN1C(=CC=CC=CC2=[N+](CCCCCC(=O)NCCCC[C@@H](NC(=O)[C@@H](CCCNC(=N)N)NC(=O)CNC(=O)[C@@H](CCCNC(=N)N)NC(=O)[C@@H](CCCNC(=N)N)NC(=O)CCCCCCCNCc3nc4c(sc5ccc(Br)cc54)c(=O)[nH]3)C(N)=O)c3ccccc3C2(C)C)C(C)(C)c2ccccc21` [Compound 6, BBTP-Aoc-(D-Arg)2-Gly-D-Arg-[D-Lys(Cy5)]-NH2], for which the Kd was 5.2 ± 0.9 nM at PIM2 [4], 1.7 ± 0.4 nM on PIM1 [5] (setting [7]), 2.6 ± 0.3 nM at PIM3 [6] and > 303 nM at PKAcα. Moreover, in the series with U2OS cells, the “ability to cross the plasma membrane / internalization” value is on record as “efficiently internalized into the cells”. Moreover, the “Manders' coefficient, co-localization with PIM-1-TagRFP” value at PIM-1-TagRFP was 0.72 ± 0.06.
For the molecule `CN1C(=CC=CC=CC2=[N+](CCCCCC(=O)NCCCC[C@@H](NC(=O)[C@@H](CCCNC(=N)N)NC(=O)CNC(=O)[C@@H](CCCNC(=N)N)NC(=O)[C@@H](CCCNC(=N)N)NC(=O)CCCCc3cn(Cc4nc5c(sc6ccc(Br)cc65)c(=O)[nH]4)nn3)C(N)=O)c3ccccc3C2(C)C)C(C)(C)c2ccccc21` [Compound 7, BBTP-Tap-(D-Arg)2-Gly-D-Arg-[D-Lys(Cy5)]-NH2], the Kd at PIM2 [4] was 28.2 ± 6.7 nM; at PIM1 [5] (setting [7]), 21.9 ± 4 nM; at PIM3 [6] it was 8.3 ± 1 nM; at PKAcα, > 1080 nM. Further, the “ability to cross the plasma membrane / internalization” value in the series with U2OS cells was “efficiently internalized into the cells”. Besides, at PIM-1-TagRFP, the “Manders' coefficient, co-localization with PIM-1-TagRFP” value was 0.43 ± 0.16.
Take `N=C(N)NCCC[C@@H](N)C(=O)N[C@H](CCCNC(=N)N)C(=O)NCC(=O)N[C@H](CCCNC(=N)N)C(=O)N[C@H](CCCCN)C(N)=O` [PIM peptide, (D-Arg)2-Gly-D-Arg-D-Lys-NH2]: the Kd at PIM2 [4] is > 46000 nM; at PIM1 [5] (KD toward PIM-1, as worded in text), > 10000 nM; at PIM1 [5] (setting [7]), > 11500 nM; at PIM3 [6], > 16400 nM; at PKAcα it was > 89000 nM.
Turning to `CN1CCC(CNc2ccc3ncc(-c4cccc(OC(F)(F)F)c4)n3n2)CC1` [SGI-1776, reference compound], the “∆Tm, °C PIM-1” value at PIM1 [1] is 9.5 °C and 9.5 ± 0.4 °C. For the same molecule, the “∆Tm, °C PIM-2” value at PIM2 [2] worked out at 8.1 ± 0.6 °C. Moreover, at PIM3 [3], the “∆Tm, °C PIM-3” value was found to be 8.2 ± 0.3 °C.
Regarding (D-Arg)6-NH2, at endoprotease furin, the Kd was 106 nM.
Regarding (D-Arg)9-NH2, on endoprotease furin, the Kd is 1.3 nM.
“BBTP-Hyp-Ahx-(D-Arg)9-D-Lys-NH2 [ARC-3119]”: the “∆Tm, °C PIM-1” value in the series with PIM1 [1] amounted to 13.7 ± 0.4 °C. Also, the “∆Tm, °C PIM-2” value in the series with PIM2 [2] stood at 13.9 ± 0.6 °C. Also, in the series with PIM3 [3], the “∆Tm, °C PIM-3” value was 11.9 ± 0.2 °C.
